Results on seven compounds are retold here after PubChem BioAssay (NCI).

Molecules are shown by their SMILES.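 A five-concentration, 48-hour dose response in 96-well plates underlies each endpoint, interpolated linearly between surrounding concentrations. At the GI50, growth is halved. Definition used: TGI = concentration required for complete inhibition of growth.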

Among the test systems are MDA-MB-231 breast; HS 578T breast; SF-539 CNS; HCC-2998 colon; SNB-75 CNS; TK-10 renal; NCI-H226 lung; A498 renal; DU-145 prostate; MDA-MB-435.
Common to all, as to assay: growth of human tumour cells (NCI), 48 h

For the compound `COc1cc(C(=O)n2nc(N3CCN(C)CC3)c3cc(N)ccc32)cc(OC)c1OC`, the GI50 with MDA-MB-231 breast is 2920 nM; in the test on HS 578T breast it was 12.8 µM; in the test on SF-539 CNS, 2860 nM; in the test with HCC-2998 colon, 3600 nM; with SNB-75 CNS, 4390 nM; with TK-10 renal it was 15.6 µM. Moreover, the GI50 with NCI-H226 lung is 5.61 µM; with A498 renal, 2820 nM; in the test with DU-145 prostate it was 3990 nM; in the test with MDA-MB-435, 1910 nM. Besides, the TGI is 21.6 µM in the test on MDA-MB-231 breast; over 100 µM in the test with HS 578T breast; 10.1 µM with SF-539 CNS; 14.3 µM in the test on HCC-2998 colon; over 100 µM in the test on SNB-75 CNS; over 100 µM in the test on TK-10 renal. The TGI in the test on NCI-H226 lung is 34.5 µM; in the test on A498 renal it was 7.12 µM; with DU-145 prostate, over 100 µM; in the test on MDA-MB-435 it was 5.4 µM.
Take `O=C1/C(=C/c2ccc(Cl)cc2)CN(C(=O)C(Cl)Cl)C/C1=C\c1ccc(Cl)cc1`: the GI50 in the test on MDA-MB-231 breast was 270 nM; with HS 578T breast, 0.312 µM; in the test on SF-539 CNS, 194 nM; in the test on HCC-2998 colon, 182 nM; with SNB-75 CNS, 161 nM; in the test on TK-10 renal, 0.374 µM. Further, the GI50 in the test on NCI-H226 lung is 0.211 µM; with A498 renal it was 211 nM; with DU-145 prostate it was 357 nM; in the test on MDA-MB-435, 194 nM. For the same compound, the TGI in the test on MDA-MB-231 breast came to 0.961 µM; in the test on HS 578T breast, 2.33 µM; with SF-539 CNS, 0.467 µM; with HCC-2998 colon it was 0.345 µM; with SNB-75 CNS, 0.509 µM; with TK-10 renal, 1.52 µM. The TGI with NCI-H226 lung turned out to be 0.454 µM; in the test on A498 renal, 0.771 µM; in the test on DU-145 prostate it was 1.31 µM; in the test on MDA-MB-435 it was 0.396 µM.
Turning to `Nc1nccc(Nc2ccc(S(N)(=O)=O)cc2)n1`, the TGI with MDA-MB-231 breast, in the test on HS 578T breast, in the test on SF-539 CNS, with HCC-2998 colon, with SNB-75 CNS and in the test with TK-10 renal was over 100 µM throughout. Further, the TGI with NCI-H226 lung, in the test with A498 renal, in the test on DU-145 prostate and in the test on MDA-MB-435 was over 100 µM throughout.
For the compound `CC(=O)OCC1OC(S[As](C)C)C(OC(C)=O)C1OC(C)=O` (stereo not given), the GI50 in the test on MDA-MB-231 breast was 404 nM; with HS 578T breast, 0.319 µM; in the test with SF-539 CNS, 226 nM; with HCC-2998 colon, 255 nM; with SNB-75 CNS, 511 nM; with TK-10 renal it was 0.231 µM. Moreover, the GI50 in the test on NCI-H226 lung was 1.63 µM; with A498 renal, 432 nM; with DU-145 prostate, 217 nM; with MDA-MB-435, 67.2 nM. For the same compound, the TGI in the test on MDA-MB-231 breast is 2.34 µM; with HS 578T breast it was 0.841 µM; in the test on SF-539 CNS it was 0.907 µM; with HCC-2998 colon, 1.76 µM; in the test on SNB-75 CNS, 1.99 µM; with TK-10 renal, 0.843 µM. In addition, the TGI stood at 6.27 µM in the test with NCI-H226 lung, 3.06 µM in the test with A498 renal, 0.836 µM in the test on DU-145 prostate and 0.301 µM in the test on MDA-MB-435.
Turning to `COc1ccc(Nc2ccnc(NCCCNc3ccnc4cc(Cl)ccc34)n2)cc1`, the GI50 in the test on MDA-MB-231 breast is 583 nM; in the test on HS 578T breast, 1.46 µM; with SF-539 CNS, 169 nM; in the test on HCC-2998 colon, 1010 nM; in the test with SNB-75 CNS, 903 nM; with TK-10 renal, 1.54 µM. The GI50 with NCI-H226 lung is 1.92 µM; with A498 renal it was 659 nM; in the test with DU-145 prostate, 2600 nM; with MDA-MB-435 it was 243 nM. In addition, the TGI in the test with MDA-MB-231 breast was determined as 2.15 µM; with HS 578T breast it was 3.83 µM; in the test on SF-539 CNS, 0.352 µM; with HCC-2998 colon, 2.61 µM; with SNB-75 CNS, 2.14 µM; in the test on TK-10 renal, 3.17 µM. The TGI in the test on NCI-H226 lung was found to be 4.55 µM; with A498 renal it was 2.54 µM; in the test with DU-145 prostate, 10.7 µM; in the test with MDA-MB-435 it was 0.705 µM.
Consider `CC[C@H](C)C(=O)O[C@H]1CCC=C2C=C[C@H](C)C(CCC3C[C@@H](O)CC(=O)O3)[C@H]21` (stereo not given in full), for which the GI50 in the test with MDA-MB-231 breast is 455 nM; with HS 578T breast, 5.19 µM; with SF-539 CNS, 83200 nM; in the test with HCC-2998 colon, 33000 nM; in the test on SNB-75 CNS it was 1330 nM; in the test with TK-10 renal, 18.5 µM. The GI50 with NCI-H226 lung was 6.2 µM; in the test with A498 renal, 18.3 nM; with DU-145 prostate it was 74800 nM; in the test with MDA-MB-435, 39300 nM. Further, the TGI was 12.5 µM with MDA-MB-231 breast; over 100 µM with HS 578T breast; over 100 µM with SF-539 CNS; over 100 µM in the test with HCC-2998 colon; 7.85 µM with SNB-75 CNS; over 100 µM in the test on TK-10 renal. In addition, the TGI was 46 µM in the test on NCI-H226 lung, 2.42 µM with A498 renal, over 100 µM with DU-145 prostate and over 100 µM with MDA-MB-435.
As to `NC(=O)Oc1cc(OC(N)=O)cc(N(CCCl)CCCl)c1`, the GI50 is 25900 nM in the test with MDA-MB-231 breast; 23.2 µM with HS 578T breast; 1650 nM in the test on SF-539 CNS; 16900 nM with HCC-2998 colon; 2710 nM in the test with SNB-75 CNS; 19.3 µM in the test with TK-10 renal. Moreover, the GI50 is 14.9 µM in the test on NCI-H226 lung, 12400 nM with A498 renal, 3060 nM with DU-145 prostate and 11400 nM with MDA-MB-435. Moreover, the TGI in the test on MDA-MB-231 breast was over 100 µM; with HS 578T breast, 76.3 µM; with SF-539 CNS it was 5.96 µM; with HCC-2998 colon, 61.9 µM; with SNB-75 CNS, 25.3 µM; with TK-10 renal, 55.9 µM. For the same compound, the TGI in the test on NCI-H226 lung is 77.7 µM; in the test with A498 renal it was 29.3 µM; in the test on DU-145 prostate it was 51.2 µM; in the test with MDA-MB-435 it was 28.9 µM.
